The text below walks through data of patent US9676758B2, “1-heteroaryl-indoline-4-carboxamides as modulators of GPR52 useful for the treatment or prevention of disorders related thereto” (Arena Pharmaceuticals, Inc., priority 2015, dated 2017).

In series [1] the test system is male Sprague-Dawley rats. Description: Amphetamine-stimulated locomotor activity in rats. Format: in vivo, rat. Particulars: 0.5, 1, 2, 5, 10, and 20 mg/kg P.O., amphetamine 0.5 mg/kg SC, FIG. 24. On the procedure:
Fifteen minutes later, rats were injected with amphetamine (0.5 mg/kg SC in volume of 1 mL/kg). Activity was then measured for 90 minutes.

Series [2] relates to male Sprague-Dawley rats. Description: Prepulse inhibition of the startle response in rats. The class given is in vivo, rat. The conditions noted are these: 5 or 20 mg/kg P.O., FIGS. 26A-B. On the procedure:
Prepulse inhibition testing was conducted in enclosed startle chambers (Kinder Scientific StartleMonitor System, Kinder Scientific, Poway, Calif.) in which animals were placed into restrainers secured onto startle-sensing plates. A constant background white noise of 65 dB was audible in the chambers throughout testing. […]
For each animal, mean startle amplitude for each trial type during the 35-trial block was calculated, and percent prepulse inhibition (% PPI) for each prepulse intensity was calculated as the percent decrease in the mean startle amplitude in response to a given prepulse and 120 dB startle stimulus relative to the mean startle amplitude in response to the 120 dB startle stimulus alone. The % PPI was then calculated for each animal as the mean % PPI across all four prepulse intensities. […]

In series [3] the test system is male Sprague Dawley rats. As to the kind of experiment: Plasma prolactin levels in rats (ELISA). Format: in vivo, rat. As for the experimental part:
Another unwanted side effect of certain antipsychotics is hyperprolactinemia. To examine prolactin levels following the administration of a GPR52 agonist, male Sprague Dawley rats (Harlan Laboratories, San Diego, Calif.) were single-housed, handled, and moved to a private housing room one week prior to testing. Rats were individually handled and sham dosed P.O. for four days prior to testing. For an assessment of haloperidol (0.1 and 1 mg/kg P.O.) and Compound 13 (1, 10, and 100 mg/kg P.O.) on basal prolactin release, rats were dosed with acidic 20% HP-β-cyclodextrin (HBCD) or compound at 3 mL/kg P.O. in their housing room 60 minutes prior to harvest. For interaction studies, rats were dosed with 20% HBCD or Compound 13 (10 mg/kg P.O.) 90 minutes prior to harvest, and additionally with 20% HBCD vehicle or haloperidol (0.3 and 1 mg/kg P.O.) 60 minutes prior to harvest. Rats were individually taken to the harvest room, and trunk blood was collected into 4 mL EDTA tubes following live decapitation. Samples were stored on wet ice until collection was complete, then spun in a cooling centrifuge at 2400 rpm for 20 minutes. Plasma was collected and frozen for subsequent analysis using a Rat Prolactin ELISA kit (ALPCO Diagnostics: Cat#55-PRLRT-E01).
Briefly, frozen plasma was thawed on ice and mixed prior to initiation of the ELISA. Twenty-five microliters of sample plasma along with serially diluted standards (lyophilized purified rat prolactin diluted with rat prolactin calibrator/sample diluent), and calibrator/sample diluent used as a blank were placed in a 96-well plate provided with the ELISA kit. Samples, blank, and standards were measured in duplicate. […] Fifty microliters of stop solution (2M hydrochloric acid) was added to the wells prior to reading on a 96-well plate reader (SpectraMax® 340PC; Molecular Devices, Sunnyvale, Calif.) at […]. The quantity of prolactin in each sample was calculated using a standard curve.
A general note: An ELISA detects its analyte on a solid surface through an enzyme-linked reagent.

A short description of series [4]: Brain penetration (plasma and brain exposure). Particulars: PO dose 3 mg/kg; male C57BL6 mice; 60 minute time point. Format: in vivo, mouse. On the procedure:
Plasma and brain exposure were evaluated to determine the brain penetration of compounds described herein. Male C57BL6 mice were administered a single per oral (PO) dose of compound at 3 or 10 mg/kg (as a free base) formulated in 20% HPCD in 0.9% NaCl. Blood and brain samples were collected 60 minutes post-dose (n=3-6 animals). Blood was collected via cardiac puncture and stored on ice prior to the separation of plasma by centrifugation. Brains were extracted from the cranium and frozen on dry ice. Tissue samples were stored at approximately −80° C. prior to bioanalytical analysis.
Analyte plasma and brain concentrations were determined by LC/MS/MS.

Series [5] deals with male Sprague-Dawley rats. As to the kind of experiment: Rat basal locomotor activity. Particulars: 0.5, 1, 2, 5, 10, and 20 mg/kg P.O.
Protocol: Locomotor activity was assessed in a photocell monitoring caging system (Kinder Scientific MotorMonitor System, Kinder Scientific, Poway, Calif.). Each cage consisted of a standard plastic rodent cage (24×45.5 cm) placed inside a stainless steel frame. Infrared photocell beams were located across the long axis of the frame. Interruption of a photocell beam due to movement of the animal in front of a beam was recorded and used as a measure of ambulatory activity. Photocell beam interruptions were automatically recorded by a computer system. Perforated cage tops were placed on top of the test enclosures during testing.
Activity was then measured for the following 30 minutes. Animals were naïve to the testing apparatus prior to performing the test. Activity is expressed as the total number of ambulations over the 30 minutes of locomotor testing (i.e., 30-60 minutes post-injection).

For the compound `O=C(NCCO)c1cccc2c1CCN2c1cc(Cc2cccc(C(F)(F)F)c2)ccn1` [Compound 13, N-(2-Hydroxyethyl)-1-(4-(3-(trifluoromethyl)benzyl)pyridin-2-yl)indoline-4-carboxamide], the amphetamine-stimulated locomotion result in series [1] was “blocked amphetamine-stimulated locomotion at several doses”. For the same compound, in series [2] (MK-801 0.3 mg/kg SC), the “MK-801-induced disruption in % PPI in 'good performers'” value is on record as “reversed”. The “amphetamine-induced disruption in % PPI in 'good performers'” value in series [2] (amphetamine 0.5 mg/kg SC) is “reversed”. Moreover, the “haloperidol-induced increase in prolactin levels” value in series [3] (Compound 13 10 mg/kg P.O., at a low dose of haloperidol, FIG. 28B) was “reversed”. In addition, the prolactin levels result in series [3] (basal prolactin release, haloperidol 0.1 and 1 mg/kg P.O., Compound 13 1, 10, and 100 mg/kg P.O., FIG. 28A) is “decreased”. The “Brain/Plasma Ratio” value in series [4] amounted to 3.51. The basal locomotor activity result in series [5] is “significant reduction in basal locomotor activity was only seen at the highest dose”.
